Test results from ChEMBL document CHEMBL3137667, “[Drug-induced liver injury; fourteenth updated edition of the bibliographic database of liver injuries and related drugs]” (Gastroenterol Clin Biol, 2004).

Assays:
[1] = human
[2] = human; remark: listed apart in the source
[3] = human, serum
[4] = Highest frequency of acute liver toxicity observed during clinical trials, expressed as a percentage. [column '% AIGUE' in source]; conditions: human
[5] = human, serum, 4383 h
[6] = human; remark: listed apart in the source
[7] = human; remark: listed apart in the source
[8] = human; remark: listed apart in the source
[9] = human; remark: listed apart in the source
[10] = human; remark: listed apart in the source
[11] = human, serum; remark: listed apart in the source
[12] = Highest frequency of moderate liver toxicity observed during clinical trials, expressed as a percentage. [column '% BIOL' in source]; conditions: human
[13] = Times to onset, minimal and maximal, observed in the indexed observations. [column 'DELAI' in source]; conditions: human
[14] = human; remark: listed apart in the source
[15] = human; remark: listed apart in the source
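Throughout, for Hepatotoxicity (association with vascular disease): count of indexed literature references reporting vascular liver injury in humans, e.g. peliosis hepatitis, hepatic veno-occlusive disease or Budd-Chiari syndrome.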
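Throughout, for Hepatotoxicity (benign tumour): value is a count of indexed literature references citing a benign tumour confirmed by histopathology.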
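Throughout, for Hepatotoxicity (choleostasis): human cholestatic liver injury, shown by histopathology or by peak ALT or AST elevation over alkaline phosphatase ratio below 2, value counts indexed literature reports.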
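Throughout, for Hepatotoxicity (chronic liver disease): chronic liver injury confirmed by histopathology or persistently raised serum aminotransferase activity beyond 6 months, value given as the count of indexed literature references.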
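Throughout, for Hepatotoxicity (cirrhosis): value is a count of indexed literature references reporting cirrhosis confirmed by histopathology.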
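Throughout, for Hepatotoxicity (cytolytic): human cytolytic liver injury, shown by histopathology or by a ratio above 5 of peak ALT or AST elevation to alkaline phosphatase elevation, value counts indexed references.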
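Throughout, for Hepatotoxicity (granulomatous hepatitis): value is a count of indexed literature references reporting granulomatous liver disease confirmed by histopathology.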
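Throughout, for Hepatotoxicity (malignant tumour): malignant tumour confirmed by histopathology, value gives the count of indexed literature references reporting it.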
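Throughout, for Hepatotoxicity (severe hepatitis): human clinical data: severe hepatitis, meaning potentially life-threatening liver failure or clinically observed cases, the value counts how many indexed literature references report it.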
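Throughout, for Hepatotoxicity (steatosis): steatosis confirmed by histopathology, value is the count of indexed references.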

## COc1nc(C)nc(Cl)c1N=C1NCCN1 [MOXONIDINE]
[1]
  Hepatotoxicity (steatosis): 0
[2]
  Hepatotoxicity (cytolytic): 1
[3]
  Hepatotoxicity (acute): 1
[4]; Liver
  Hepatotoxicity (acute): 0%
[5]
  Hepatotoxicity (chronic liver disease): 0
[6]
  Hepatotoxicity (cirrhosis): 0
[7]
  Hepatotoxicity (malignant tumour): 0
[8]
  Hepatotoxicity (association with vascular disease): 0
[9]; Liver
  Hepatotoxicity (severe hepatitis): 1
[10]
  Hepatotoxicity (benign tumour): 0
[11]
  Hepatotoxicity (moderate): 0
[12]; Liver
  Hepatotoxicity (moderate): 0%
[13]
  Hepatotoxicity (time to onset): 9 months
[14]
  Hepatotoxicity (choleostasis): 1
[15]
  Hepatotoxicity (granulomatous hepatitis): 0

## O=C(O)CCNC(=O)c1ccc(/N=N/c2ccc(O)c(C(=O)O)c2)cc1 [BALSALAZIDE]
[1]
  Hepatotoxicity (steatosis): 0
[2]
  Hepatotoxicity (cytolytic): 0
[3]
  Hepatotoxicity (acute): 1
[4]
  Hepatotoxicity (acute): 0%
[5]
  Hepatotoxicity (chronic liver disease): 0
[6]
  Hepatotoxicity (cirrhosis): 0
[7]
  Hepatotoxicity (malignant tumour): 0
[8]
  Hepatotoxicity (association with vascular disease): 0
[9]
  Hepatotoxicity (severe hepatitis): 0
[10]
  Hepatotoxicity (benign tumour): 0
[11]
  Hepatotoxicity (moderate): 0
[12]
  Hepatotoxicity (moderate): 0%
[13]
  Hepatotoxicity (time to onset): 8 days
[14]
  Hepatotoxicity (choleostasis): 1
[15]
  Hepatotoxicity (granulomatous hepatitis): 0

## OC[C@H]1O[C@@H](n2cnc3c2NC=NC[C@H]3O)C[C@@H]1O [PENTOSTATIN]
[1]
  Hepatotoxicity (steatosis): 1
[2]
  Hepatotoxicity (cytolytic): 1
[3]
  Hepatotoxicity (acute): 1
[4]
  Hepatotoxicity (acute): 0%
[5]
  Hepatotoxicity (chronic liver disease): 0
[6]
  Hepatotoxicity (cirrhosis): 0
[7]
  Hepatotoxicity (malignant tumour): 0
[8]
  Hepatotoxicity (association with vascular disease): 0
[9]
  Hepatotoxicity (severe hepatitis): 2
[10]
  Hepatotoxicity (benign tumour): 0
[11]
  Hepatotoxicity (moderate): 16
[12]
  Hepatotoxicity (moderate): 81.3%
[13]
  Hepatotoxicity (time to onset): 1 day - 2 months
[14]
  Hepatotoxicity (choleostasis): 0
[15]
  Hepatotoxicity (granulomatous hepatitis): 0

## O=C1CN=C(c2ccccc2)c2c(sc3c2CCCC3)N1 [BENTAZEPAM]
[1]
  Hepatotoxicity (steatosis): 0
[2]
  Hepatotoxicity (cytolytic): 2
[3]
  Hepatotoxicity (acute): 2
[4]
  Hepatotoxicity (acute): 0%
[5]
  Hepatotoxicity (chronic liver disease): 3
[6]
  Hepatotoxicity (cirrhosis): 1
[7]
  Hepatotoxicity (malignant tumour): 0
[8]
  Hepatotoxicity (association with vascular disease): 0
[9]
  Hepatotoxicity (severe hepatitis): 0
[10]
  Hepatotoxicity (benign tumour): 0
[11]
  Hepatotoxicity (moderate): 1
[12]
  Hepatotoxicity (moderate): 0%
[13]
  Hepatotoxicity (time to onset): 1 month - 6 months
[14]
  Hepatotoxicity (choleostasis): 0
[15]
  Hepatotoxicity (granulomatous hepatitis): 0

## COCC(=O)Nc1c(I)c(C(=O)NCC(O)CO)c(I)c(C(=O)N(C)CC(O)CO)c1I (stereo not given) [IOPROMIDE]
[1]
  Hepatotoxicity (steatosis): 0
[2]
  Hepatotoxicity (cytolytic): 1
[3]
  Hepatotoxicity (acute): 1
[4]
  Hepatotoxicity (acute): 0%
[5]
  Hepatotoxicity (chronic liver disease): 0
[6]
  Hepatotoxicity (cirrhosis): 0
[7]
  Hepatotoxicity (malignant tumour): 0
[8]
  Hepatotoxicity (association with vascular disease): 0
[9]
  Hepatotoxicity (severe hepatitis): 0
[10]
  Hepatotoxicity (benign tumour): 0
[11]
  Hepatotoxicity (moderate): 0
[12]
  Hepatotoxicity (moderate): 0%
[13]
  Hepatotoxicity (time to onset): < 1 days
[14]
  Hepatotoxicity (choleostasis): 0
[15]
  Hepatotoxicity (granulomatous hepatitis): 0

## Cc1nnc(NS(=O)(=O)c2ccc(N)cc2)s1 [SULFAMETHIZOLE]
[1]
  Hepatotoxicity (steatosis): 0
[2]
  Hepatotoxicity (cytolytic): 2
[3]
  Hepatotoxicity (acute): 4
[4]
  Hepatotoxicity (acute): 0%
[5]
  Hepatotoxicity (chronic liver disease): 0
[6]
  Hepatotoxicity (cirrhosis): 0
[7]
  Hepatotoxicity (malignant tumour): 0
[8]
  Hepatotoxicity (association with vascular disease): 0
[9]
  Hepatotoxicity (severe hepatitis): 0
[10]
  Hepatotoxicity (benign tumour): 0
[11]
  Hepatotoxicity (moderate): 0
[12]
  Hepatotoxicity (moderate): 0%
[13]
  Hepatotoxicity (time to onset): 1 month - 2 months
[14]
  Hepatotoxicity (choleostasis): 1
[15]
  Hepatotoxicity (granulomatous hepatitis): 0

## CN(C)CCOc1ccc(/C(=C(/CCCl)c2ccccc2)c2ccccc2)cc1 [TOREMIFENE]
[1]
  Hepatotoxicity (steatosis): 1
[2]
  Hepatotoxicity (cytolytic): 0
[3]
  Hepatotoxicity (acute): 2
[4]
  Hepatotoxicity (acute): 6.1%
[5]
  Hepatotoxicity (chronic liver disease): 0
[6]
  Hepatotoxicity (cirrhosis): 0
[7]
  Hepatotoxicity (malignant tumour): 0
[8]
  Hepatotoxicity (association with vascular disease): 0
[9]
  Hepatotoxicity (severe hepatitis): 0
[10]
  Hepatotoxicity (benign tumour): 0
[11]
  Hepatotoxicity (moderate): 4
[12]
  Hepatotoxicity (moderate): 8.3%
[13]
  Hepatotoxicity (time to onset): 3 months
[14]
  Hepatotoxicity (choleostasis): 1
[15]
  Hepatotoxicity (granulomatous hepatitis): 0

## CC(C)c1cccc(C(C)C)c1O [PROPOFOL]
[1]
  Hepatotoxicity (steatosis): 0
[2]; Liver
  Hepatotoxicity (cytolytic): 1
[3]
  Hepatotoxicity (acute): 2
[4]; Liver
  Hepatotoxicity (acute): 0%
[5]
  Hepatotoxicity (chronic liver disease): 0
[6]
  Hepatotoxicity (cirrhosis): 0
[7]
  Hepatotoxicity (malignant tumour): 0
[8]
  Hepatotoxicity (association with vascular disease): 0
[9]; Liver
  Hepatotoxicity (severe hepatitis): 0
[10]
  Hepatotoxicity (benign tumour): 0
[11]
  Hepatotoxicity (moderate): 0
[12]; Liver
  Hepatotoxicity (moderate): 0%
[13]
  Hepatotoxicity (time to onset): 1 day - 4 weeks
[14]; Liver
  Hepatotoxicity (choleostasis): 1
[15]; Liver
  Hepatotoxicity (granulomatous hepatitis): 0

## Cc1ccc2c(c1)C(N1CCN(C)CC1)=Nc1ccccc1S2 [METIAPINE]
[1]
  Hepatotoxicity (steatosis): 0
[2]
  Hepatotoxicity (cytolytic): 1
[3]
  Hepatotoxicity (acute): 1
[4]
  Hepatotoxicity (acute): 0%
[5]
  Hepatotoxicity (chronic liver disease): 0
[6]
  Hepatotoxicity (cirrhosis): 0
[7]
  Hepatotoxicity (malignant tumour): 0
[8]
  Hepatotoxicity (association with vascular disease): 0
[9]
  Hepatotoxicity (severe hepatitis): 0
[10]
  Hepatotoxicity (benign tumour): 0
[11]
  Hepatotoxicity (moderate): 2
[12]
  Hepatotoxicity (moderate): 0%
[13]
  Hepatotoxicity (time to onset): 2 weeks - 2 months
[14]
  Hepatotoxicity (choleostasis): 0
[15]
  Hepatotoxicity (granulomatous hepatitis): 0

## c1cnc(N2CCN(Cc3ccc4c(c3)OCO4)CC2)nc1 [PIRIBEDIL]
[1]
  Hepatotoxicity (steatosis): 0
[2]
  Hepatotoxicity (cytolytic): 0
[3]
  Hepatotoxicity (acute): 0
[4]
  Hepatotoxicity (acute): 0%
[5]
  Hepatotoxicity (chronic liver disease): 0
[6]
  Hepatotoxicity (cirrhosis): 0
[7]
  Hepatotoxicity (malignant tumour): 0
[8]
  Hepatotoxicity (association with vascular disease): 0
[9]
  Hepatotoxicity (severe hepatitis): 0
[10]
  Hepatotoxicity (benign tumour): 0
[11]
  Hepatotoxicity (moderate): 2
[12]
  Hepatotoxicity (moderate): 10%
[13]
  Hepatotoxicity (time to onset): 12 days - 2.5 months
[14]
  Hepatotoxicity (choleostasis): 0
[15]
  Hepatotoxicity (granulomatous hepatitis): 0

## CNCCON=c1c2ccccc2ccc2ccccc12 [DEMEXIPTILINE]
[1]
  Hepatotoxicity (steatosis): 0
[2]
  Hepatotoxicity (cytolytic): 1
[3]
  Hepatotoxicity (acute): 1
[4]
  Hepatotoxicity (acute): 0%
[5]
  Hepatotoxicity (chronic liver disease): 0
[6]
  Hepatotoxicity (cirrhosis): 0
[7]
  Hepatotoxicity (malignant tumour): 0
[8]
  Hepatotoxicity (association with vascular disease): 0
[9]
  Hepatotoxicity (severe hepatitis): 0
[10]
  Hepatotoxicity (benign tumour): 0
[11]
  Hepatotoxicity (moderate): 0
[12]
  Hepatotoxicity (moderate): 0%
[13]
  Hepatotoxicity (time to onset): 6 weeks
[14]
  Hepatotoxicity (choleostasis): 1
[15]
  Hepatotoxicity (granulomatous hepatitis): 0
